Measured values published in US4245106A, “Process for the preparation of 1-alkyl-3-aryl-4-pyrazolecarboxylates” (Monsanto Company, priority 1979, dated 1981).

Assays:
Type in all cases: in vivo
[1] = test system: Barnyard grass; assay: pre-emergent herbicidal activity test
Method: (§1) Table II summarizes results of tests conducted to determine the pre-emergent as well as the post-emergent herbicidal activity of the compounds. The pre-emergent test was conducted as follows:
(§2) A good grade of top soil was placed in aluminum pans and compacted to a depth of three-eighths to one-half inch from the top of the pan. On the top of the soil was placed a predetermined number of seeds or vegetative propagules of various plant species. The soil required to level fill the pans after seeding or adding vegetative propagules was weighed into a pan. A known amount of the active ingredient applied in a solvent or as a wettable powder and the soil were thoroughly mixed, and used as a cover layer for prepared pans. After treatment the pans were moved into a greenhouse bench where they were watered from below as needed to give adequate moisture for germination and growth.
(§3) A herbicial rating code was used to signify the extent of phytotoxicity of each species. The rating are defined as follows: […]

[2] = test system: Bromus tectorum; assay: pre-emergent herbicidal activity test
Method: as §1, §2, §3

[3] = test system: Canada Thistle; assay: pre-emergent herbicidal activity test
Method: as §1, §2, §3

[4] = test system: Cocklebur; assay: pre-emergent herbicidal activity test
Method: as §1, §2, §3

[5] = test system: Johnsongrass; assay: pre-emergent herbicidal activity test
Method: as §1, §2, §3

[6] = test system: Lambsquarter; assay: pre-emergent herbicidal activity test
Method: as §1, §2, §3

[7] = test system: Morningglory; assay: pre-emergent herbicidal activity test
Method: as §1, §2, §3

[8] = test system: Nutsedge; assay: pre-emergent herbicidal activity test
Method: as §1, §2, §3

[9] = test system: Quackgrass; assay: pre-emergent herbicidal activity test
Method: as §1, §2, §3

[10] = test system: Smartweed; assay: pre-emergent herbicidal activity test
Method: as §1, §2, §3

[11] = test system: Velvetleaf; assay: pre-emergent herbicidal activity test
Method: as §1, §2, §3

[12] = test system: Barnyard grass; assay: post-emergent herbicidal activity test; details: 11.2 Kg/Ha; approximately four weeks later
Method: (§4) The post-emergent tests were conducted as follows. The active ingredients are applied in spray form to two or three-week old specimens of various plant species. The spray, a solution or wettable powder suspension containing the appropriate rate of active ingredient to give the desired test rate and a surfactant, is applied to the plants. The treated plants are placed in a greenhouse and unless otherwise noted approximately four weeks later the effects are observed and recorded.

[13] = test system: Bromus tectorum; assay: post-emergent herbicidal activity test; details: 11.2 Kg/Ha; approximately four weeks later
Method: as §4

[14] = test system: Canada Thistle; assay: post-emergent herbicidal activity test; details: 11.2 Kg/Ha; approximately four weeks later
Method: as §4

[15] = test system: Cocklebur; assay: post-emergent herbicidal activity test; details: 11.2 Kg/Ha; approximately four weeks later
Method: as §4

[16] = test system: Johnsongrass; assay: post-emergent herbicidal activity test; details: 11.2 Kg/Ha; approximately four weeks later
Method: as §4

[17] = test system: Lambsquarter; assay: post-emergent herbicidal activity test; details: 11.2 Kg/Ha; approximately four weeks later
Method: as §4

[18] = test system: Morningglory; assay: post-emergent herbicidal activity test; details: 11.2 Kg/Ha; approximately four weeks later
Method: as §4

[19] = test system: Nutsedge; assay: post-emergent herbicidal activity test; details: 11.2 Kg/Ha; approximately four weeks later
Method: as §4

[20] = test system: Quackgrass; assay: post-emergent herbicidal activity test; details: 11.2 Kg/Ha; approximately four weeks later
Method: as §4

[21] = test system: Smartweed; assay: post-emergent herbicidal activity test; details: 11.2 Kg/Ha; approximately four weeks later
Method: as §4

[22] = test system: Velvetleaf; assay: post-emergent herbicidal activity test; details: 11.2 Kg/Ha; approximately four weeks later
Method: as §4

[23] = 11.2 Kg/Ha, approximately 28 days after seeding and treating
[24] = *11.2 Kg/Ha, observed approximately 14 days after treatment
Further: ranges in brackets are in %.

| SMILES | Post-Emergent herbicidal rating, K Barnyard grass [12] | Post-Emergent herbicidal rating, J Bromus tectorum [13] | Post-Emergent herbicidal rating, A Canada Thistle [14] | Post-Emergent herbicidal rating, B Cocklebur [15] | Post-Emergent herbicidal rating, I Johnsongrass [16] | Post-Emergent herbicidal rating, E Lambsquarter [17] | Post-Emergent herbicidal rating, D Morningglory [18] | Post-Emergent herbicidal rating, G Nutsedge [19] | Post-Emergent herbicidal rating, H Quackgrass [20] | Post-Emergent herbicidal rating, F Smartweed [21] | Post-Emergent herbicidal rating, C Velvetleaf [22] | further results |
| --- | --- | --- | --- | --- | --- | --- | --- | --- | --- | --- | --- | --- |
| CCCCOC(=O)c1cn(C)nc1-c1cccc(C(F)(F)F)c1 [Example 30] | 1 (25-49) | 1 (25-49) | 0 (0-24) | 1 (25-49) | 1 (25-49) | 3 (75-99) | 1 (25-49) | 0 (0-24) | 0 (0-24) | 0 (0-24) | 1 (25-49) | Pre-Emergent herbicidal rating, K Barnyard grass [1, 23]: 3 (75-100); Pre-Emergent herbicidal rating, J Bromus tectorum [2, 23]: 2 (50-74); Pre-Emergent herbicidal rating, A Canada Thistle [3, 23]: 2 (50-74); Pre-Emergent herbicidal rating, B Cocklebur [4, 23]: 0 (0-24); Pre-Emergent herbicidal rating, I Johnsongrass [5, 23]: 0 (0-24); Pre-Emergent herbicidal rating, E Lambsquarter [6, 23]: 3 (75-100); Pre-Emergent herbicidal rating, D Morningglory [7, 23]: 0 (0-24); Pre-Emergent herbicidal rating, G Nutsedge [8, 23]: 0 (0-24); Pre-Emergent herbicidal rating, H Quackgrass [9, 23]: 0 (0-24); Pre-Emergent herbicidal rating, F Smartweed [10, 23]: 3 (75-100); Pre-Emergent herbicidal rating, C Velvetleaf [11, 23]: 1 (25-49) |
| CCOC(=O)c1cn(C)nc1-c1ccc(OC)cc1 [Example 31] | 1 (25-49) | 0 (0-24) | 0 (0-24) | 0 (0-24) | 0 (0-24) | 4 (100) | 1 (25-49) | 0 (0-24) | 0 (0-24) | 4 (100) | 1 (25-49) | Pre-Emergent herbicidal rating, K Barnyard grass [1, 24]: 0 (0-24); Pre-Emergent herbicidal rating, J Bromus tectorum [2, 24]: 0 (0-24); Pre-Emergent herbicidal rating, A Canada Thistle [3, 24]: 0 (0-24); Pre-Emergent herbicidal rating, B Cocklebur [4, 24]: 0 (0-24); Pre-Emergent herbicidal rating, I Johnsongrass [5, 24]: 0 (0-24); Pre-Emergent herbicidal rating, E Lambsquarter [6, 24]: 0 (0-24); Pre-Emergent herbicidal rating, D Morningglory [7, 24]: 0 (0-24); Pre-Emergent herbicidal rating, G Nutsedge [8, 24]: 0 (0-24); Pre-Emergent herbicidal rating, H Quackgrass [9, 24]: 0 (0-24); Pre-Emergent herbicidal rating, F Smartweed [10, 24]: 0 (0-24); Pre-Emergent herbicidal rating, C Velvetleaf [11, 24]: 0 (0-24) |
